From US11998005B2, “Herbicidal formulations comprising glyphosate and COTE-based adjuvants” (NOURYON CHEMICALS INTERNATIONAL B.V., priority 2018, dated 2024) come the findings set out here.

Each structure is given as a SMILES string.

The subject of this test is wheat representing narrow leaf weeds. In words: Bioefficacy, greenhouse spray test with IPA glyphosate + adjuvant. It counts as in vivo. As to conditions: compared to untreated plant. The protocol:
All bioefficacy testing was done at University of Georgia's Agricultural Experiment Station in Griffin, Georgia Concentrates were first formulated by blending IPA glyphosate salt with the desired amount surfactant and water resulting in a 20 wt % ae and a 6.49% surfactant solution. Prior to spraying two sets of diluted solutions were prepared by dissolving 16 g of concentrates into 984 grams of tap water and a second set by dissolving 500 g of the above dilute solution into 500 g of tap water. […] All of the plants were placed in a temperature controlled greenhouse and measured for growth (or lack of) each week for a period of 4 weeks. The data is reported as % Growth Control compared to untreated plant. The higher the value the better the bioefficacy. When the last measurement was taken at 4 weeks the plants are cut at the roots and the “fresh” weight measured.
Testing in the foregoing manner yielded the following results: • Plant Species—Wheat • IPA-glyphosate application rate—300 g a.e./H
• Plant Species—Wheat • IPA-glyphosate application rate—600 g a.e./H

As for `O=C(O)CNCP(=O)(O)O` [IPA-Glyphosate only, N-phosphonomethylglycine], the “% Growth Control” value by setting is: (IPA-glyphosate application rate 300 g a.e./H) 31%; (IPA-glyphosate application rate 600 g a.e./H) 72%.
